Measurements taken from patent US12227501B2, “3-amino-2-[2-(acylamino)pyridin-4-yl]-1,5,6,7-tetrahydro-4h-pyrrolo[3,2-c]pyridin-4-one as CSNK1 inhibitors” (Bayer Aktiengesellschaft, priority 2019, dated 2025).
Where two headings read alike, the source gives them in different places.

Key:
Assay type in all cases: biochemical
human CSNK1A1 [1] = target: T1, human CSNK1A1 (Homo sapiens (Human), UniProt P48729); assay: CSNK1A1 Assay 2 (ADP-Glo, 1 μM ATP); conditions: substrate biotin-Ahx-KRRRAL-pS-VASLPGL, read-out: CSNK1A1 Assay 2 IC50 [mol/l] (median)
Procedure, shortened: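 Full-length human CSNK1A1 as an N-terminal GST fusion (baculovirus/insect cells) with biotinylated peptide substrate biotin-Ahx-KRRRAL-pS-VASLPGL and 1 μM ATP, in HEPES pH 7.5 buffer. Compounds were pre-incubated with enzyme (~0.0375 ng/μL) for 15 min at 22 °C. Generated ADP was read by ADP-Glo luminescence as the activity measure.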

human CSNK1A1 [2] = target: T1, human CSNK1A1; assay: CSNK1A1 High ATP Assay (ADP-Glo, 1 mM ATP); conditions: read-out: CSNK1A1 high ATP assay IC50 [mol/l] (median)
Procedure, shortened: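 Kinase activity taken as ADP generated, quantified by ADP-Glo luminescence after 1 h ATP depletion and 1 h detection at 22 °C. Enzyme is GST–full-length human CSNK1A1 (insect cell-expressed), pre-bound to compound for 15 min, with phosphopeptide substrate and 1 mM ATP.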

human CSNK1D = human CSNK1D (Homo sapiens (Human), UniProt P48730); assay: CSNK1D Assay (ADP-Glo, 1 μM ATP); conditions: read-out: CSNK1D IC50 [mol/l] (median)
Procedure, shortened: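 Activity is read as ADP produced, by ADP-Glo luminescence after 1 h steps at 22 °C. The reaction uses 1 μM ATP, a biotinylated peptide and insect-cell-expressed GST–CSNK1D (about 0.5 ng/μL) in pH 7.5 HEPES buffer, with 15 min compound–enzyme preincubation.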

[3] = target: wild-type Epidermal Growth Factor Receptor (EGFR) (Homo sapiens (Human), UniProt P00533); assay: WT-EGFR Kinase Assay (TR-FRET, 2 mM ATP)
[4] = EGFR Wildtyp- 2 mM ATP IC50 [mol/l] (median)

wild-type Epidermal Growth Factor Receptor (EGFR), sequence (P00533 669-1210): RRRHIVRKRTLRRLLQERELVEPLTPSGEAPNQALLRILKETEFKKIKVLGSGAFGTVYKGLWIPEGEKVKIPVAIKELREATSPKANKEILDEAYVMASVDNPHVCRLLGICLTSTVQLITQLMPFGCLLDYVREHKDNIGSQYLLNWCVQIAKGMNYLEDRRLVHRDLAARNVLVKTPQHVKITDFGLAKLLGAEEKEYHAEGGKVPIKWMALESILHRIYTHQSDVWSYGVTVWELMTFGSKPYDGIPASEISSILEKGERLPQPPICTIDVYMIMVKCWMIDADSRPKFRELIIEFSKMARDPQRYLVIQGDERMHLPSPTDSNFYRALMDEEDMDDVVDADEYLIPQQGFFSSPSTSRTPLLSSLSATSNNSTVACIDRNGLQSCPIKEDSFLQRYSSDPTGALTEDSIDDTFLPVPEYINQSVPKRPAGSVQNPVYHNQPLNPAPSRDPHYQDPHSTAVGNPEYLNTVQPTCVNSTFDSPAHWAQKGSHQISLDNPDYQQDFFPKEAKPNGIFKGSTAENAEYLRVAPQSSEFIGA
human CSNK1D, sequence (P48730 whole entry): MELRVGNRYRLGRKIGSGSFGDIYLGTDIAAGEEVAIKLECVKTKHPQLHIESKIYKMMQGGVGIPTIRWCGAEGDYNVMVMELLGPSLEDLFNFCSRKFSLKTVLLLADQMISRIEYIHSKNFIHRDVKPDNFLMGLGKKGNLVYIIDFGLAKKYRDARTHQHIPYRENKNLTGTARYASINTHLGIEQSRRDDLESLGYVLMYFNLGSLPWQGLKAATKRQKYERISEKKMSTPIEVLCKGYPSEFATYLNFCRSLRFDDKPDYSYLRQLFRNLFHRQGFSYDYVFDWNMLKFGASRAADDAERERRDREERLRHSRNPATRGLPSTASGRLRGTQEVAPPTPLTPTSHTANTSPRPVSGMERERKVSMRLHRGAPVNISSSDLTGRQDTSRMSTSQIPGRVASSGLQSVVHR
T1 sequence (P48729 whole entry, the tested form may be a part): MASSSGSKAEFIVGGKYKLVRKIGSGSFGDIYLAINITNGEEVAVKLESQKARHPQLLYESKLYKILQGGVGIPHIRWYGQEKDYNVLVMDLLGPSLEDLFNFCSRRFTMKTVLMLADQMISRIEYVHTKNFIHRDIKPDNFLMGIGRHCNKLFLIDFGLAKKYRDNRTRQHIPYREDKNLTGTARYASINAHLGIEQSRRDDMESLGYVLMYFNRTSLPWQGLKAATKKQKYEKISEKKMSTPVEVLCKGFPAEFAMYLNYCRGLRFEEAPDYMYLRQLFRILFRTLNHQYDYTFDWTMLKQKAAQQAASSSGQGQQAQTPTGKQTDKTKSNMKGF

Row | SMILES | IC50 (human CSNK1A1 [1]) | IC50 (human CSNK1A1 [2]) | IC50 (human CSNK1D) | IC50 ([3]; read-out: EGFR Wildtyp- 2 mM ATP IC50 [mol/l] (median)) | IC50 [3, 4]
1 | CC1Cc2[nH]c(-c3ccnc(NC(=O)C(CC(F)F)c4ccc(F)cc4)c3)c(Nc3ccccc3F)c2C(=O)N1C (single isomer, unassigned; (+)) [Example 108, (+)-4,4-difluoro-N-{4-[3-(2-fluoroanilino)-5,6-dimethyl-4-oxo-4,5,6,7-tetrahydro-1H-pyrrolo[3,2-c]pyridin-2-yl]pyridin-2-yl}-2-(4-fluorophenyl)butanamide] | 0.00327 µM | 0.00833 µM | 0.00462 µM | > 20 µM | –
2 | CC1(C)Cc2[nH]c(-c3ccnc(NC(=O)C(CC(F)F)c4ccc(F)cc4)c3)c(Nc3cccc(F)c3Cl)c2C(=O)N1 (single isomer, unassigned; (+)) [Example 111, (+)-N-{4-[3-(2-chloro-3-fluoroanilino)-6,6-dimethyl-4-oxo-4,5,6,7-tetrahydro-1H-pyrrolo[3,2-c]pyridin-2-yl]pyridin-2-yl}-4,4-difluoro-2-(4-fluorophenyl)butanamide] | 0.0109 µM | 0.135 µM | 0.0102 µM | – | 1.14 µM
3 | CC(C(=O)Nc1cc(-c2[nH]c3c(c2Nc2ccccc2F)C(=O)N(C)CC3)ccn1)c1ccc(F)cc1 (single isomer, unassigned; (-)) [Example 41, (−)-N-{4-[3-(2-fluoroanilino)-5-methyl-4-oxo-4,5,6,7-tetrahydro-1H-pyrrolo[3,2-c]pyridin-2-yl]pyridin-2-yl}-2-(4-fluorophenyl)propanamide] | 0.0226 µM | 3.53 µM | 0.0312 µM | – | > 20 µM
4 | O=C1NC2(CCC2)Cc2[nH]c(-c3ccnc(NC(=O)C(CC(F)F)c4ccc(F)cc4)c3)c(Nc3ccccc3)c21 (single isomer, unassigned; (-)) [Example 56, (−)-N-[4-(3′-anilino-4′-oxo-1′,4′,5′,7′-tetrahydrospiro[cyclobutane-1,6′-pyrrolo[3,2-c]pyridin]-2′-yl)pyridin-2-yl]-4,4-difluoro-2-(4-fluorophenyl)butanamide] | 0.0192 µM | 1.08 µM | 0.0279 µM | – | 0.857 µM
5 | CN(C)CCCC(C(=O)Nc1cc(-c2[nH]c3c(c2Nc2ccccc2)C(=O)N(C)CC3)ccn1)c1ccccc1 (single isomer, unassigned; (-)) [Example 59, (−)-N-[4-(3-anilino-5-methyl-4-oxo-4,5,6,7-tetrahydro-1H-pyrrolo[3,2-c]pyridin-2-yl)pyridin-2-yl]-5-(dimethylamino)-2-phenylpentanamide] | 0.0943 µM | 7.3 µM | 0.0862 µM | – | 16.3 µM
6 | CN1CCc2[nH]c(-c3ccnc(NC(=O)C(CC(F)F)c4ccc(F)cc4)c3)c(Nc3ccccc3)c2C1=O (single isomer, unassigned; (-)) [Example 62, (−)-N-[4-(3-anilino-5-methyl-4-oxo-4,5,6,7-tetrahydro-1H-pyrrolo[3,2-c]pyridin-2-yl)pyridin-2-yl]-4,4-difluoro-2-(4-fluorophenyl)butanamide] | 0.021 µM | 1.5 µM | 0.0297 µM | – | > 20 µM
7 | CCC(C(=O)Nc1cc(-c2[nH]c3c(c2Nc2ccccc2)C(=O)N(C)CC3)ccn1)c1ccc(F)cc1 (single isomer, unassigned; (-)) [Example 76, (−)-N-[4-(3-anilino-5-methyl-4-oxo-4,5,6,7-tetrahydro-1H-pyrrolo[3,2-c]pyridin-2-yl)pyridin-2-yl]-2-(4-fluorophenyl)butanamide] | 0.0144 µM | 0.506 µM | 0.0175 µM | – | > 20 µM
8 | CC(C(=O)Nc1cc(-c2[nH]c3c(c2Nc2ccccc2)C(=O)N(C)CC3)ccn1)c1ccc(Cl)cc1 (single isomer, unassigned; (-)) [Example 80, (−)-N-[4-(3-anilino-5-methyl-4-oxo-4,5,6,7-tetrahydro-1H-pyrrolo[3,2-c]pyridin-2-yl)pyridin-2-yl]-2-(4-chlorophenyl)propanamide] | 0.0241 µM | 2.84 µM | 0.0303 µM | – | > 20 µM
